The subject of test [1] is HCT116 (colon) cancer cell line. As to the kind of experiment: In vitro cytotoxic activity MTT assay, HCT116. Format: cell-based. The conditions noted are these: Homo sapiens, HCT-116; HCT116 (colon) cells, exposed for 96 hours; read-out: IC50, concentration of compound eliciting a 50% inhibition of cell proliferation. As for the experimental part:
(§1) Compounds 1-16 were screened for their in vitro cytotoxic activity utilizing a 3-(4,5-dimethyl-thiazol-2-yl)-2,5-diphenyltetrazolium bromide (MTT) assay against selected cancer human cell lines consisting of PC3 (prostate), HCT116 (colon), A375 (melanoma), H1299 (lung), MIAPaCa-2 (pancreas), HL60 (leukemia), MCF7 (breast), MDA-MB-231 (breast) (T. Mosmann, J. Immunol. Meth., 1983, 65, 55-63). The cells were cultured at 37° C. in RMPI1640 medium supplemented with 10% fetal bovine serum, 50 IU/mL penicillin, and 50 μg/mL streptomycin in a 5% CO2 incubator. All cells were sub-cultured 3 times/week by trypsinisation. Viable cells were seeded and allowed to adhere for 12 h before a test drug was added in 96-well plates at an initial density of 1.0×10^5 cells/mL. Tumor cell lines were separately exposed to various concentrations of the tested compounds followed by incubation at a temperature of 37° C. during 96 hours inside a medium of fresh RMPI 1640. Cells were subsequently incubated at 37° C. using MTT at 0.5 mg/mL during 4 hours. After removal of supernatant, formazan crystals were dissolved in isopropanol and the optical density was measured at 570 nm. CX-4945 was used as a positive control.

The target of test [2] is T1, recombinant human CK2 (holoenzyme) (Homo sapiens, UniProt P68400).
T1 construct: purchased Millipore
As to the kind of experiment: CK2 Kinase Assay (radiometric, [γ-33P] ATP). It counts as biochemical. The conditions noted are these: final ATP concentration 15 μM, 10 min at 30° C., eight concentrations; read-out: protein kinase CK2 inhibition IC50. How it is done:
CK2 Kinase Assay was conducted using the protocol as described in Pierre F. et al; J. Med. Chem. 2011, 54, 635-654. The tested compounds in aqueous solution were added at a volume of 10 μL to a reaction mixture comprising 10 μL of assay dilution buffer (ADB; 20 mM MOPS, pH 7.2, 25 mM P-glycerol phosphate, 5 mM EGTA, 1 mM sodium orthovanadate, and 1 mM dithiothreitol), 10 μL of substrate peptide (RRRDDDSDDD, dissolved in ADB at a concentration of 1 mM), 10 μL of recombinant human CK2 (RROP-holoenzyme, 25 ng dissolved in ADB; Millipore). Reactions were initiated by the addition of 10 μL of ATP solution (90% 75 mMMgCl2, 75 μM ATP (final ATP concentration:15 μM) dissolved in ADB; 10% [γ-33P] ATP (stock 1mCi/100 μL; 3000 Ci/mmol (Perkin-Elmer) and maintained for 10 min at 30° C. The reactions were quenched with 100 μL of 0.75% phosphoric acid and then transferred to and filtered through a phosphor cellulose filter plate (Millipore). After washing each well five times with 0.75% phosphoric acid, the plate was dried under vacuum for 5 min and, following the addition of 15 μL of scintillation fluid to each well, the residual radioactivity was measured using a Wallac luminescence counter. The IC50 values were derived from eight concentrations of test inhibitors.

Test [3] deals with MCF7 (breast) cancer cell line. The experiment in a line: In vitro cytotoxic activity MTT assay, MCF7. Format: cell-based. The conditions noted are these: Homo sapiens; MCF7 (breast) cells, exposed for 96 hours; read-out: IC50, concentration of compound eliciting a 50% inhibition of cell proliferation. How it is done: as §1
Test [4] has as its system PC3 (prostate) cancer cell line. The experiment in a line: In vitro cytotoxic activity MTT assay, PC3. Format: cell-based. The following applies: Homo sapiens, PC3 (prostate) cells, exposed for 96 hours, read-out: IC50, concentration of compound eliciting a 50% inhibition of cell proliferation. How it is done:
as §1

Test [5] deals with MDA-MB-231 (breast) cancer cell line. The experiment in a line: In vitro cytotoxic activity MTT assay, MDA-MB-231. It counts as cell-based. The conditions noted are these: Homo sapiens; MDA-MB-231 (breast) cells, exposed for 96 hours; read-out: IC50, concentration of compound eliciting a 50% inhibition of cell proliferation. How it is done:
as §1

For test [6], the system named is H1299 (lung) cancer cell line. The experiment in a line: In vitro cytotoxic activity MTT assay, H1299. The following applies: Homo sapiens, NCI-H1299; H1299 (lung) cells, exposed for 96 hours; read-out: IC50, concentration of compound eliciting a 50% inhibition of cell proliferation. It counts as cell-based. How it is done: as §1
Test [7] relates to MIAPaCa-2 (pancreas) cancer cell line. As to the kind of experiment: In vitro cytotoxic activity MTT assay, MIAPaCa-2. The conditions noted are these: Homo sapiens, MIA PaCa-2; MIAPaCa-2 (pancreas) cells, exposed for 96 hours; read-out: IC50, concentration of compound eliciting a 50% inhibition of cell proliferation. It counts as cell-based. As for the experimental part: as §1
In test [8] the test system is HL60 (leukemia) cancer cell line. The experiment in a line: In vitro cytotoxic activity MTT assay, HL60. The conditions noted are these: Homo sapiens, HL-60; HL60 (leukemia) cells, exposed for 96 hours; read-out: IC50, concentration of compound eliciting a 50% inhibition of cell proliferation. Format: cell-based. As for the experimental part:
as §1

For test [9], the system named is A375 (melanoma) cancer cell line. As to the kind of experiment: In vitro cytotoxic activity MTT assay, A375. The conditions noted are these: Homo sapiens, A-375; A375 (melanoma) cells, exposed for 96 hours; read-out: IC50, concentration of compound eliciting a 50% inhibition of cell proliferation. It counts as cell-based. How it is done:
as §1

pIC50: −log10 of the molar value.

T1 sequence (P68400 whole entry): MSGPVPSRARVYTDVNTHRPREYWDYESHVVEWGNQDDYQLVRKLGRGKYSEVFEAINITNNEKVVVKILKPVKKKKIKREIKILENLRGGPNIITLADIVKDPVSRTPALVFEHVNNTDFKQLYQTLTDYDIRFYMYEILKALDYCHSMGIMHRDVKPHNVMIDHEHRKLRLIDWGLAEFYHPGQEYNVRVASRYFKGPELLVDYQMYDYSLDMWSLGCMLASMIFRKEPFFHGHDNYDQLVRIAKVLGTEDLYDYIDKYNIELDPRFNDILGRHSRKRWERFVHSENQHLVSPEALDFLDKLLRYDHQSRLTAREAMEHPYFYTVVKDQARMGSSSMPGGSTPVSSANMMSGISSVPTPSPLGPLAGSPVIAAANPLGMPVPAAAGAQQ
T1 sequence (P67870 whole entry partner): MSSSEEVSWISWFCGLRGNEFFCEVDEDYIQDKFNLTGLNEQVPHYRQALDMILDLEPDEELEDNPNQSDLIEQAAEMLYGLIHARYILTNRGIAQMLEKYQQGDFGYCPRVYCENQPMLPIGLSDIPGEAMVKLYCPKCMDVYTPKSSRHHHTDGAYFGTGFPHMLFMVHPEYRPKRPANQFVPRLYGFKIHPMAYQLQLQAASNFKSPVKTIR

As to `Clc1cccc(Nc2c3ccncc3nc3c2nc2cnccn23)c1` [Compound 1, N-(3-chlorophenyl)pyrazino[2′,1′:2,3]imidazo[4,5-b][1,7]naphthyridin-11-amine], the pIC50 is 5.85 in test [1]; 7.04 in test [2]; 5.20 in test [3]; 5.72 in [4]; 5.30 in test [5]; 5.54 in [6]. The pIC50 in test [7] is 5.96; in test [8] it was 5.55; in test [9] it was 5.49.

Values taken from patent US11999736B1, “Pyrazino[2′,1′:2,3]imidazo[4,5-b][1,7]naphthyridines compounds as CK2 inhibitors” (KING FAISAL UNIVERSITY, priority 2023, dated 2024).
